Assay results: ChEMBL document CHEMBL3817841, “Biological evaluation of quinoline derivatives as inhibitors of human dihydroorotate dehydrogenase” (Medchemcomm, 2016)

Assays:
[1] = molecular target: T1, Dihydroorotate dehydrogenase (quinone), mitochondrial (Homo sapiens, UniProt Q02127); assay: Inhibition of N-terminally truncated human DHODH (Met30 to Arg396 residues) expressed in Escherichia coli BL21 (DE3) using dihydroorotate as substrate preincubated for 5 mins followed by substrate addition measured every 30 secs for 6 mins by DCIP-based spectrophotometric assay
T1 sequence (Q02127 whole entry, the tested form may be a part): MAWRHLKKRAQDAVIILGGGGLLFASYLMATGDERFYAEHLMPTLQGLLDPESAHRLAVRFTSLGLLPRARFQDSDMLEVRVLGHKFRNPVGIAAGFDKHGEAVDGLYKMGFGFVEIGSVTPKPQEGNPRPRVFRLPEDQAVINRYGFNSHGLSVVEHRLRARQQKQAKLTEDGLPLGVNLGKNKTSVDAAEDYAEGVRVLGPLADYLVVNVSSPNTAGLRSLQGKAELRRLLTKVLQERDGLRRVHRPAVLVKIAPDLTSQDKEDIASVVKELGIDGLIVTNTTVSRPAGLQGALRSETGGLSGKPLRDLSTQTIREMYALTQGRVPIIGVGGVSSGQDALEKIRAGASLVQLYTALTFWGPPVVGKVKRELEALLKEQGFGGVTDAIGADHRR

[2] = molecular target: T1, Dihydroorotate dehydrogenase (quinone), mitochondrial; assay: Binding affinity to N-terminally truncated human DHODH (Met30 to Arg396 residues) expressed in Escherichia coli BL21 (DE3) by surface plasmon resonance assay
[3] = molecular target: T1, Dihydroorotate dehydrogenase (quinone), mitochondrial; assay: Binding affinity to N-terminally truncated human DHODH (Met30 to Arg396 residues) expressed in Escherichia coli BL21 (DE3) assessed as dissociation rate constant by surface plasmon resonance assay
[4] = molecular target: T1, Dihydroorotate dehydrogenase (quinone), mitochondrial
Description: Binding affinity to N-terminally truncated human DHODH (Met30 to Arg396 residues) expressed in Escherichia coli BL21 (DE3) assessed as association rate constant by surface plasmon resonance assay

[5] = molecular target: T1, Dihydroorotate dehydrogenase (quinone), mitochondrial; remark: listed apart in the source
Description: Binding affinity to N-terminally truncated human DHODH (Met30 to Arg396 residues) expressed in Escherichia coli BL21 (DE3) assessed as change in melting temperature at 100 uM by fluorescence-based thermal shift assay

IC50 [1] [nM] | SMILES | also measured
136 | CC(C)c1ccc(-c2cc(C(=O)O)c3cc(Br)ccc3n2)cc1 | –
9.7 | CCC(C)c1ccc(-c2nc3ccc(Br)cc3c(C(=O)O)c2C)cc1 (stereo not drawn) | Kd [2]: 12 nM; koff [3]: 7.58 ×10⁻³ /s; Ka [4]: 5.99 ×10⁵ /M/s; ΔTm [5]: 16.6 °C
437 | CCCCc1ccc(-c2cc(C(=O)O)c3ccccc3n2)cc1 | –
1570 | Cc1c(-c2ccc(C(C)C)cc2)nc2ccccc2c1C(=O)O | –
3250 | COC(=O)c1cc(-c2ccc(OC)c(OC)c2)nc2ccccc12 | –
5180 | O=C(O)c1cc(-c2ccc3c(c2)OCO3)nc2ccccc12 | –
57.1 | O=C(O)c1cc(-c2ccc(Cl)c(Cl)c2)nc2ccc(Br)cc12 | –
1310 | CCCCOc1cccc(-c2cc(C(=O)O)c3ccccc3n2)c1 | –
666 | O=C(O)c1cc(-c2ccc(Cl)cc2Cl)nc2ccc(Br)cc12 | –
